Assay results as given in US20230365576A1, “BRM Targeting Compounds And Associated Methods Of Use” (Prelude Therapeutics Incorporated, priority 2022, published 2023).

Tests used:
SMARCA2 = target: T1, SMARCA2 (Homo sapiens, UniProt P51531); experiment: SMARCA2 HiBiT degradation assay in HeLa cells; format: cell-based; conditions: 18 hours; for DC50: read-out: SMARCA2 IC50; for Dmax: HeLa
T1 construct: SMARCA2-HiBiT knock-in Hela monoclonal cell (CS302366); host or cells: HeLa (CRISPR HiBiT knock-in monoclonal line, heterozygous)
Description: (§1) Example A. SMARCA2 HiBiT and SMARCA4 HiBiT Degradation Assay
(§2) Preparation of SMARCA2/4-HiBiT Knock-In Cells
(§3) HiBiT peptide knock-in of SMARCA2 in LgBiT expressing HEK293T cells was performed by CRISPR-mediated tagging system as described Promega. The homozygous HiBiT knock-in on c-terminus SMARCA2 was confirmed by sanger sequence. SMARCA2-HiBiT knock-in Hela monoclonal cell (CS302366) and SMARCA4-HiBiT knock-in Hela monoclonal cell (CS3023226) were purchased from Promega. The heterozygous HiBiT-knock-in was confirmed by sanger sequence in both SMARCA2-HiBiT and SMARCA4-HiBiT monoclonal cells.
(§4) SMARCA2 HiBiT and SMARCA4 HiBiT Degradation Assay in HeLa Cells
(§5) Compounds were dissolved in DMSO to make 10 mM stock and 3-fold series dilutions were further conducted keeping the highest concentration 10 μM. NCIH1693 and NCIH520 cells were maintained in PRMI 1640 medium (Corning Cellgro, Catalog #:10-040-CV) supplemented with 10% v/v FBS (GE Healthcare, Catalog #: SH30910.03) by splitting 1:3 twice a week.
(§6) Dispense 10 ul aliquot of prepared Hela-SMARCA2-HiBiT or Hela-SMARCA4-HiBiT cells (1:1 ratio of cells:Trypan Blue (#1450013, Bio-Rad)) onto cell counting slide (#145-0011, Bio-Rad) and obtain cell density and cell viability using cell counter (TC20, Bio-Rad). Remove appropriate volume of resuspended cells from culture flask to accommodate 2500 cells/well @ 20 μL/well. Transfer Hela-HiBiT cells to 50 mL conical (#430290, Corning). Spin down at 1000 rpm for 5 min using tabletop centrifuge (SPINCHRON 15, Beckman). Discard supernatant and resuspend cell pellet in modified EMEM (#30-2003, ATCC) cell culture media containing 10% FBS (F2422-500ML, Sigma), and 1X Penicillin/Streptomycin (200 g/L) (30-002-CI, Corning) to a cell density of 125,000 cells/mL. Dispense 20 μL of resuspended Hela-HiBit cells per well in 384-well TC treated plate (#12-565-343, Thermo Scientific) using standard cassette (#50950372, Thermo Scientific) on Multidrop Combi (#5840310, Thermo Scientific) inside laminar flow cabinet. Dispense test compounds onto plates using digital liquid dispenser (D300E, Tecan). Incubate plates in humidified tissue culture incubator @37° C. for 18 hours. Add 20 μL of prepared Nano-Glo® HiBiT Lytic detection buffer (N3050, Promega) to each well of 384-well plate using small tube cassette (#24073295, Thermo Scientific) on Multidrop Combi, incubate @ RT for 30-60 min. Read plates on microplate reader (Envision 2105, PerkinElmer) using 384 well Ultra-Sensitive luminescence mode. Raw data files and compound information reports are swept into centralized data lake and deconvoluted using automated scripts designed by TetraScience, Inc. Data analysis, curve-fitting and reporting done in Dotmatics Informatics Suite using Screening Ultra module.

SMARCA4 = target: T2, SMARCA4 (Homo sapiens, UniProt P51532); experiment: SMARCA4 HiBiT degradation assay in HeLa cells; format: cell-based; conditions: 18 hours; for Dmax: HeLa
T2 construct: SMARCA4-HiBiT knock-in Hela monoclonal cell (CS3023226) were purchased from Promega; host or cells: HeLa (CRISPR HiBiT knock-in monoclonal line, heterozygous)
Description: as §1, §2, §3, §4, §5, §6

T2 sequence (P51532 whole entry): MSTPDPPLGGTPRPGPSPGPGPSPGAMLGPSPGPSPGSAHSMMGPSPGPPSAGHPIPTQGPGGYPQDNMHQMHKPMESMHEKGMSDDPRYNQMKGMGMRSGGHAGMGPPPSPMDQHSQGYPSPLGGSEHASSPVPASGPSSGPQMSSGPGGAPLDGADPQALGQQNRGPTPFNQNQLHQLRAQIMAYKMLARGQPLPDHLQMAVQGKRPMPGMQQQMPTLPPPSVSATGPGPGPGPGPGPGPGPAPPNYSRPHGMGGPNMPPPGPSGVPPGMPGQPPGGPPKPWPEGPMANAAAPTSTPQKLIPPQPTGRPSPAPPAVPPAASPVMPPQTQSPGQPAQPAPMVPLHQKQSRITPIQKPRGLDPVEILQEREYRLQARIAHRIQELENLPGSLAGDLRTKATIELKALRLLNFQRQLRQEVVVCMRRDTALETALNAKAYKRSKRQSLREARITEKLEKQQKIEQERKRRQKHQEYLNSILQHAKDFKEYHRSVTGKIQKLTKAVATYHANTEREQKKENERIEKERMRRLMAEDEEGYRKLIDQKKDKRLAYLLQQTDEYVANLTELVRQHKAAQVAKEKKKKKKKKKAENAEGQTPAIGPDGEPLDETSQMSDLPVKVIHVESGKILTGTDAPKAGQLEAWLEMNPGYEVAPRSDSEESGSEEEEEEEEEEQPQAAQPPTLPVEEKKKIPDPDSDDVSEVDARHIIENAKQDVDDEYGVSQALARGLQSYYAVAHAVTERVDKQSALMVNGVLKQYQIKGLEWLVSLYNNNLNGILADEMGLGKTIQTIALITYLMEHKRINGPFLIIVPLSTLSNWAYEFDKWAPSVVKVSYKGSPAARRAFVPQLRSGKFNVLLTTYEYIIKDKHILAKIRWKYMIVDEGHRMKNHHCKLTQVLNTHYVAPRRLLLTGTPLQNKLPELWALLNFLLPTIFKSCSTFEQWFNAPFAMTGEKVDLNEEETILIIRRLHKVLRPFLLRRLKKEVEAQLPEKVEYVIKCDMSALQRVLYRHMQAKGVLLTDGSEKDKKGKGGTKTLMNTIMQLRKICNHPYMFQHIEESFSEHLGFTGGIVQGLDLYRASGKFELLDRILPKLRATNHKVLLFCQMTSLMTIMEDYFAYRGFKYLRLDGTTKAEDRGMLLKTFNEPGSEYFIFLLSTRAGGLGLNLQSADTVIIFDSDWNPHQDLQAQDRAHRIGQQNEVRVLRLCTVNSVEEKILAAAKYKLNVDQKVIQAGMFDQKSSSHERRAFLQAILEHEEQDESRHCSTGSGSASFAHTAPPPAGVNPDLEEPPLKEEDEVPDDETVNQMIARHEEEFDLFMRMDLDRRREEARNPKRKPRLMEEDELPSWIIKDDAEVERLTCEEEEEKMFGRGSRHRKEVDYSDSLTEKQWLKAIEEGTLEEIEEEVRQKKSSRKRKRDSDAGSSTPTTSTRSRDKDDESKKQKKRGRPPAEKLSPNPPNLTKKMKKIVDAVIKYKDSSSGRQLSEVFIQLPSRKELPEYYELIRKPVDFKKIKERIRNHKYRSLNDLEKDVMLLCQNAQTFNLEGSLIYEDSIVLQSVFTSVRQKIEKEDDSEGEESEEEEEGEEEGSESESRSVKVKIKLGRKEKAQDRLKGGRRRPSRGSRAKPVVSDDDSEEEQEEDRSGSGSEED
T1 sequence (P51531 whole entry): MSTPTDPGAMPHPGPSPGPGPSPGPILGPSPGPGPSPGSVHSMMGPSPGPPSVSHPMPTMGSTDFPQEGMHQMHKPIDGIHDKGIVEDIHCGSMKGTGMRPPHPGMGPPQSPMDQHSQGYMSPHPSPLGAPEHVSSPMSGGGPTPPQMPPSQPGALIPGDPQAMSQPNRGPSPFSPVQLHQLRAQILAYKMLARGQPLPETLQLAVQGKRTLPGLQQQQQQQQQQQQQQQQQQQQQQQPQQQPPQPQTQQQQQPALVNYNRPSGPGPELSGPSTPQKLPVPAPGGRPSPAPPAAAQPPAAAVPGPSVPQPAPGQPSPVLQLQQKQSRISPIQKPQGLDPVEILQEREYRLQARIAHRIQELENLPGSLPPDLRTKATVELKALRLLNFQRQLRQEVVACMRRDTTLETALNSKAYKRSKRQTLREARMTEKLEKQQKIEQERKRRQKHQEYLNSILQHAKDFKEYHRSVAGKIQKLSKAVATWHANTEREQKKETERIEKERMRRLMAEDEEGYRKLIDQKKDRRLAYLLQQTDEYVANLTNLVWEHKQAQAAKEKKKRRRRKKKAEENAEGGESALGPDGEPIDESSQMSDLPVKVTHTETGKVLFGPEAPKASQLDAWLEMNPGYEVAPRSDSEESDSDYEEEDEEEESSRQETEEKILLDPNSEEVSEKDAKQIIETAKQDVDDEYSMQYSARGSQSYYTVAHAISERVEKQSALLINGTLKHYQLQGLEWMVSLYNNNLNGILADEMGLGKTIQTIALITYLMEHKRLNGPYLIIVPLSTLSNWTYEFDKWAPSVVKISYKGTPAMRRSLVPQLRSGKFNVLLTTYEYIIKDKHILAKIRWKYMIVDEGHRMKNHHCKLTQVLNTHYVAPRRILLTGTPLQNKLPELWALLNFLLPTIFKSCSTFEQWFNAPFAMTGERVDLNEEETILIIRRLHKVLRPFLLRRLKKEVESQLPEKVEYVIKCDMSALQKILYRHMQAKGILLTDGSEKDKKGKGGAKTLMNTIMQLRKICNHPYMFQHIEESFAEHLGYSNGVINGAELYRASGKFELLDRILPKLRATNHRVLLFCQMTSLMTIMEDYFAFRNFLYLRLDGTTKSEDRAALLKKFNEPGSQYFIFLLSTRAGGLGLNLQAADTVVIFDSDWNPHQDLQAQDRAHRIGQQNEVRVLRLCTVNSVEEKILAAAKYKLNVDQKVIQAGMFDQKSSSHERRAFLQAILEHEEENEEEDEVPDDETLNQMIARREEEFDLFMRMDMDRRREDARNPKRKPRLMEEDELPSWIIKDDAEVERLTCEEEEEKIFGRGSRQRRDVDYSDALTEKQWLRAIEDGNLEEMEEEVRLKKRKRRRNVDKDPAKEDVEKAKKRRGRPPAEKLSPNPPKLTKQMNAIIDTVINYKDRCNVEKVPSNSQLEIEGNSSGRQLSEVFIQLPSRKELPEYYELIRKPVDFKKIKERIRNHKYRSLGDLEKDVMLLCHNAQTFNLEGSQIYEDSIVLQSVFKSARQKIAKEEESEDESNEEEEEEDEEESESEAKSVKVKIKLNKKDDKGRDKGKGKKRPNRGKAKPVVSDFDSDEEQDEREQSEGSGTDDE

| DC50 (SMARCA2) | Dmax (SMARCA2) | DC50 (SMARCA4) | Dmax (SMARCA4) | SMARCA2 DMax % (SMARCA2) | SMARCA4 DMax % (SMARCA4) | Compound |
| --- | --- | --- | --- | --- | --- | --- |
| < 100 nM | > 75% | < 100 nM | 50 to 75% | – | – | C[C@H]1CN2c3cc(-c4cc(F)cc(F)c4O)nnc3NC[C@H]2CN1C[C@H]1[C@@H]2CN(CC3CN(c4ccc5c(c4)C(=O)N(C4CCC(=O)NC4=O)C5)CCO3)C[C@@H]21 (stereo partly drawn) [Example 50, 3-(6-(2-(((1R,5S,6r)-6-(((6aS,9S)-2-(3,5-difluoro-2-hydroxyphenyl)-9-methyl-5,6,6a,7,9,10-hexahydro-8H-pyrazino[1′,2′:4,5]pyrazino[2,3-c]pyridazin-8-yl)methyl)-3-azabicyclo[3.1.0]hexan-3-yl)methyl)morpholino)-1-oxoisoindolin-2-yl)piperidine-2,6-dione] |
| < 100 nM | > 75% | < 100 nM | < 50% | – | – | O=C1CCC(N2Cc3ccc(N4CCN(CC5CCN(C(=O)N6CCN7c8cc(-c9cc(F)cc(F)c9O)nnc8NC[C@H]7C6)CC5)CC4)cc3C2=O)C(=O)N1 (stereo partly drawn) [Example 48, 3-(6-(4-((1-((S)-2-(3,5-difluoro-2-hydroxyphenyl)-6,6a,7,8,9,10-hexahydro-5H-pyrazino[1′,2′:4,5]pyrazino[2,3-c]pyridazine-8-carbonyl)piperidin-4-yl)methyl)piperazin-1-yl)-1-oxoisoindolin-2-yl)piperidine-2,6-dione] |
| < 100 nM | – | < 100 nM | 50 to 75% | A (A=Dmax>75%) | – | CC1(C)CN(CC2CCN(c3ccc4c(c3)C(=O)N([C@H]3CCC(=O)NC3=O)C4)CC2)CCN1C(=O)N1CCN2c3cc(-c4cccc(F)c4O)nnc3NCC2(C(F)(F)F)C1 (single isomer, unassigned) [Example 100] |
| < 100 nM | – | > 1000 nM | – | A (A=Dmax>75%) | C (C=Dmax<50%) | CC12CNc3nnc(-c4cc(F)cc(F)c4O)cc3N1CCN(C(=O)C1(F)CCN(CC3CCN(c4ccc5c(c4)C(=O)N([C@H]4CCC(=O)NC4=O)C5)CC3)CC1)C2 (single isomer, unassigned) [Example 113] |
| < 100 nM | > 75% | 100 to 1000 nM | < 50% | – | – | CC1(C)CC(CN2CCN(c3ccc4c(c3)C(=O)N([C@H]3CCC(=O)NC3=O)C4)CC2)CCN1C(=O)N1CCN2c3cc(-c4cccc(F)c4O)nnc3NC[C@@]2(C(F)F)C1 (stereo partly drawn) [Example 73, (3S)-3-(6-(4-((1-((S)-6a-(difluoromethyl)-2-(3-fluoro-2-hydroxyphenyl)-6,6a,7,8,9,10-hexahydro-5H-pyrazino[1′,2′:4,5]pyrazino[2,3-c]pyridazine-8-carbonyl)-2,2-dimethylpiperidin-4-yl)methyl)piperazin-1-yl)-1-oxoisoindolin-2-yl)piperidine-2,6-dione] |
| < 100 nM | – | < 100 nM | – | A (A=Dmax>75%) | A (A=Dmax>75%) | CCC12CNc3nnc(-c4cccc(F)c4O)cc3N1CCN(C(=O)N1[C@H](C)CN(CC3CCN(c4ccc5c(c4)C(=O)N(C4CCC(=O)NC4=O)C5)CC3)C[C@@H]1C)C2 (single isomer, unassigned) [Example 62] |
| < 100 nM | > 75% | 100 to 1000 nM | < 50% | – | – | C[C@@H]1C[C@H](CN2CCN(c3ccc4c(c3)C(=O)N([C@H]3CCC(=O)NC3=O)C4)CC2)C[C@H](C)N1C(=O)N1CCN2c3cc(-c4cccc(F)c4O)nnc3NC[C@@]2(C(F)F)C1 [Example 71, (S)-3-(6-(4-(((2R,4S,6S)-1-((S)-6a-(difluoromethyl)-2-(3-fluoro-2-hydroxyphenyl)-6,6a,7,8,9,10-hexahydro-5H-pyrazino[1′,2′:4,5]pyrazino[2,3-c]pyridazine-8-carbonyl)-2,6-dimethylpiperidin-4-yl)methyl)piperazin-1-yl)-1-oxoisoindolin-2-yl)piperidine-2,6-dione] |

The next lines start with the compound.

| Compound | DC50 (SMARCA2) | Dmax (SMARCA2) | DC50 (SMARCA4) | Dmax (SMARCA4) | SMARCA2 DMax % (SMARCA2) | SMARCA4 DMax % (SMARCA4) |
| --- | --- | --- | --- | --- | --- | --- |
| O=C1CCC(N2Cc3ccc(N4CCN(C[C@H]5CC[C@H](CN6CCN7c8cc(-c9cc(F)cc(F)c9O)nnc8NC[C@H]7C6)CC5)CC4)cc3C2=O)C(=O)N1 (some centres unmarked) [Example 54] | < 100 nM | > 75% | < 100 nM | > 75% | – | – |
| O=C1CC[C@H](N2Cc3ccc(N4CCC(CN5CCC(F)(C(=O)N6CCN7c8cc(-c9cc(F)cc(F)c9O)nnc8NC[C@]7(C(F)F)C6)CC5)CC4)cc3C2=O)C(=O)N1 [Example 105, (S)-3-(6-(4-((4-((R)-2-(3,5-difluoro-2-hydroxyphenyl)-6a-(difluoromethyl)-6,6a,7,8,9,10-hexahydro-5H-pyrazino[1′,2′:4,5]pyrazino[2,3-c]pyridazine-8-carbonyl)-4-fluoropiperidin-1-yl)methyl)piperidin-1-yl)-1-oxoisoindolin-2-yl)piperidine-2,6-dione] | < 100 nM | > 75% | < 100 nM | 50 to 75% | – | – |
| CC1(C)CN(CC2CCN(c3ccc4c(c3)C(=O)N(C3CCC(=O)NC3=O)C4)CC2)CCN1C(=O)N1CCN2c3cc(-c4cccc(F)c4O)nnc3NC[C@H]2C1 (stereo partly drawn) [Example 5, 3-(6-(4-((4-((S)-2-(3-fluoro-2-hydroxyphenyl)-6,6a,7,8,9,10-hexahydro-5H-pyrazino[1′,2′:4,5]pyrazino[2,3-c]pyridazine-8-carbonyl)-3,3-dimethylpiperazin-1-yl)methyl)piperidin-1-yl)-1-oxoisoindolin-2-yl)piperidine-2,6-dione] | < 100 nM | > 75% | < 100 nM | < 50% | – | – |
| C[C@@H]1CN(CC2CCN(c3ccc4c(c3)C(=O)N([C@H]3CCC(=O)NC3=O)C4)CC2)C[C@@H](C)N1C(=O)N1CCN2c3cc(-c4cccc(F)c4O)nnc3NCC2(C(F)(F)F)C1 (single isomer, unassigned) [Example 97] | < 100 nM | – | 100 to 1000 nM | – | A (A=Dmax>75%) | C (C=Dmax<50%) |
| O=C1CCC(N2Cc3ccc(N4CC[C@@H](CN5CC[C@@H](CN6CCN7c8cc(-c9cc(F)cc(F)c9O)nnc8NC[C@H]7C6)C5)C4)cc3C2=O)C(=O)N1 (stereo partly drawn) [Example 52, 3-(6-((S)-3-(((R)-3-(((S)-2-(3,5-difluoro-2-hydroxyphenyl)-5,6,6a,7,9,10-hexahydro-8H-pyrazino[1′,2′:4,5]pyrazino[2,3-c]pyridazin-8-yl)methyl)pyrrolidin-1-yl)methyl)pyrrolidin-1-yl)-1-oxoisoindolin-2-yl)piperidine-2,6-dione] | < 100 nM | > 75% | < 100 nM | 50 to 75% | – | – |
| C[C@@H]1CN(CC2CCN(c3ccc4c(c3)C(=O)N(C3CCC(=O)NC3=O)C4)CC2)C[C@@H](C)N1C(=O)N1CCN2c3cc(-c4cccc(Cl)c4O)nnc3NCC2(C)C1 (single isomer, unassigned) [Example 63] | < 100 nM | – | < 100 nM | – | – | – |
| O=C1CCC(N2Cc3ccc(N4CC[C@H](CN5C[C@@H]6[C@H](C5)[C@H]6CN5CCN6c7cc(-c8cc(F)cc(F)c8O)nnc7NC[C@H]6C5)[C@@H](F)C4)cc3C2=O)C(=O)N1 (single isomer, unassigned) [Example 37] | < 100 nM | > 75% | < 100 nM | – | – | – |
